According to patent US8551997B2, “Structural-based inhibitors of the glutathione binding site in aldose reductase, methods of screening therefor and methods of use” (The Board of Regents of the University of Texas System, priority 2004, dated 2013):

How the values were obtained:
Caco-2 cells [1] = assay: Cox-2 mRNA RT-PCR in Caco-2 cells; format: cell-based, human; details: sorbinil 24 h, growth factor 3 h
Method: Total RNA was isolated from Caco-2 cells by using Rnaeasy micro isolation kit (Qiagen). Total RNA (1.5 μg) sample was reverse transcribed with Omniscript and Sensiscript reverse transcriptase one-Step RT PCR system with HotStarTaq DNA polymerase (Qiagen) at 55° C. for 30 min followed by PCR amplification. The oligonucleotide primer sequences were as follows: 5′-[…]-3′ (sense; SEQ ID NO: 4) and 5′-[…]-3′ (antisense; SEQ ID NO: 5) for Cox-2, and 5′-[…]-3′ (SEQ ID NO: 6) and 5′-[…]-3′ (SEQ ID NO: 7) for β-actin. PCR reaction was carried out in a GeneAmp 2700 thermocycler (Applied Biosystems, Foster City, Calif.) under the following conditions: initial denaturation at 95° C. for 15 min; 35 cycles of 94° C. 30 s, 62° C. 30 s, 72° C. 1 min, and then 72° C. 5 min for final extension (57). PCR products were electrophoresed in 2% Agarose-1™ TAE gels containing 0.5 μg/ml ethidium bromide.

Caco-2 cells [2] = assay: Western blot of Cox-1 and Cox-2 in Caco-2 cells; format: cell-based, human
Method: To examine expression of any of Cox-1, Cox-2, phospho-PKC-2, GAPDH, E2F1, Cyclin D1, Cyclin E, and iNOS proteins, Western blot analyses were carried by known methods (15). Equal amounts of protein from cell extracts were subjected to 12% SDS-PAGE followed by transfer of proteins to nitrocellulose filters, probing with the indicated antibodies, and the antigen-antibody complex was detected by enhanced chemiluminescence (Pierce, Piscataway, N.J., USA).

C57BL/6 mice [3] = assay: LPS-induced cytokines in serum and heart of mice; format: in vivo, mouse
Method: At the indicated times, TNF-a, IL-6, IL-12, interferon (IFN)-g, IL-1b, and monocyte chemo attractant protein (MCP)-1 levels in serum and in heart homogenates were determined (FIGS. 6A-6D). Prostaglandin E2 (PGE-2), cyclo-oxygenase 2 (COX-2), and nitrate levels were measured separately (FIG. 6E). Solid symbols, values from the mice injected with LPS; open symbols, values from the mice treated with LPS and sorbinil.
In sorbinil-treated mice, however, serum cytokine levels increased only 2-fold, began declining within 4 h, and returned to baseline levels within 12 h.

BALB/C mice = assay: Azoxymethane-induced colon carcinogenesis, ACF analysis; format: in vivo, mouse; details: 9 weeks
Method: Approximately six weeks old mice were divided into 4 groups (5 mice/group). Mice in groups 3 and 4 were treated with azoxymethane in sterile saline, at a dose of 10 mg/kg body weight i.p. once a week, for 3 weeks. In group 4, mice were treated with AR inhibitor sorbinil (25 mg/kg body weight per day) for entire period after 1 week from the first azoxymethane injection. Mice in groups 1 and 2 received equal volumes of sterile saline and sorbinil, respectively. Similarly AR knock out mice also were treated with azoxymethane (10 mg/kg body weight i.p.) once a week for 3 weeks. After 9 weeks all mice were killed by CO2 euthanasia. The colons were removed, flushed with saline and opened from anus to cecum and fixed flat between two pieces of filter paper in 10% buffered formalin for 24 h. Colons were stained with 0.2% methylene blue dissolved in saline and the numbers of aberrant crypts foci (ACF) were counted under a microscope at 200× magnification.
BALB/C mice were injected with azoxymethane or saline and treated with and with out AR inhibitor, sorbinil as described in Example 2. At the early preneoplastic stage (9 weeks after first azoxymethane injection), mice were sacrificed and their colons were removed and analyzed microscopically for the presence of ACF. […]

Caco-2 cells [4] = assay: Flowcytometric cell cycle analysis, Caco-2; format: cell-based, human; details: sorbinil 20 μM
Method: The Caco-2 and A549 cells were grown separately in 6 well plates at a density of approximately 1.5×10^5 cells/well. Growth-arrested Caco-2 cells were pre-incubated with or without sorbinil 20 μM or carrier for 24 h and then stimulated with either 10 ng/ml BFGF or PDGF for another 24 h. After 24 hrs A549 cells were incubated with or without sorbinil at different concentrations for another 24 h.
The Caco-2 and A549 cells were then washed with PBS and harvested by trypsinization. Cellular DNA was stained with low and high salt solutions. Briefly, cells were resuspended in 250 μl of solution A, low salt stain, containing polyetheleneglycol (30 mg/ml), propidium iodide (0.05 mg/ml), triton-x-100 (1 μl/ml), sodium citrate 4 mM, RNAse A 10 μg/ml and incubated at 37° C. for 20 min followed by the addition of 250 μl of solution B, high salt stain containing 400 mM NaCl instead of 4 mM sodium citrate in solution A, and incubated overnight at 4° C. Cell cycle analysis was performed with a minimum of 10,000 events per analysis by using FACScan flow cytometer (Becton, Dickinson and Co., San Jose, Calif., USA).

C57BL/6 mice [5] = assay: LPS signaling in the heart (NF-kB, AP1, iNOS, kinases); format: in vivo, mouse
From the text: At the indicated times, NF-kB activation (FIG. 8A), AP1 activation with an electrophoretic mobility shift assay (FIG. 8B), iNOS expression by western blotting (FIG. 8C), or PKC activation with a total PKC assay system (FIG. 8D) (SignaTect, Promega), or phosphorylated forms of the indicated kinases by western blotting (FIG. 8E), was detected. Values are means±SEM (N=4). *P<0.001 versus LPS-treated mice. OD, optical density.
In sorbinil-treated mice, however, activation of NF-κB and AP1 decreased by ˜70% at 2 h, and the levels returned to baseline by 24 h. […] These findings are consistent with the downregulation of inflammatory cytokines and chemokines in the serum and heart upon AR inhibition (FIGS. 8A-8D). […] AR inhibition attenuated the phosphorylation of almost all members of this cascade (FIG. 8D-8E). Thus, AR appears to […] the inflammatory cascade by regulating the activation of NF-κB, thereby protecting against cardiovascular collapse in the setting of overwhelming sepsis.

[6] = sorbinil pretreatment, LPS 4 mg/kg

(S)-6-fluorospiro[chroman-4,4′-imidazolidine]-2,5′-dione [sorbinil]
prevention of BFGF or PDGF-induced Cox-2 mRNA levels (Caco-2 cells [1]): 55-65%
growth factor-induced Cox-2 protein (Caco-2 cells [2]): attenuated
levels of constitutive Cox-1 protein (Caco-2 cells [2]): not affected
GS-DHN-induced Cox-2 expression (Caco-2 cells [2]; sorbinil 24 h, GS-DHN-ester 24 h): had no effect
HNE and GS-HNE-induced Cox-2 expression (Caco-2 cells [2]; sorbinil 24 h, aldehydes 24 h): significantly prevented
maladaptive systemic inflammatory response in serum (C57BL/6 mice [3]; sorbinil 2 h after LPS exposure): blunted
time at which serum cytokine levels began declining (C57BL/6 mice [3]; [6]): ≤ 4 h
time at which serum cytokine levels returned to baseline (C57BL/6 mice [3]; [6]): ≤ 12 h
increase of serum cytokine levels after LPS (C57BL/6 mice [3]; sorbinil pretreatment, LPS 4 mg/kg peritoneally): 2 fold
azoxymethane-induced Cox-2 and iNOS expression in mice colons (BALB/C mice): inhibits
number of average ACF/colon (BALB/C mice; azoxymethane+sorbinil 25 mg/kg body weight per day): 2.4±0.5
percentage of cells in G1 (Caco-2 cells [4]; Control): 54.97%
percentage of cells in G2 (Caco-2 cells [4]; Control): 5.32%
percentage of cells in S (Caco-2 cells [4]; Control): 39.71%
percentage of cells in G1 (Caco-2 cells [4]; FGF): 36.31%
percentage of cells in G2 (Caco-2 cells [4]; FGF): 1.54%
percentage of cells in S (Caco-2 cells [4]; FGF): 52.15%
percentage of cells in G1 (Caco-2 cells [4]; PDGF): 36.18%
percentage of cells in G2 (Caco-2 cells [4]; PDGF): 12.10%
percentage of cells in S (Caco-2 cells [4]; PDGF): 51.71%
cardiac iNOS levels (C57BL/6 mice [5]; after LPS): increased only slightly
phosphorylation of upstream kinases of NF-κB and AP1 (MAPK, IKK, PKC, PLC) in the heart (C57BL/6 mice [5]; after LPS): attenuated
decrease of cardiac AP1 activation (C57BL/6 mice [5]; at 2 h after LPS): ~70%
decrease of cardiac NF-κB activation (C57BL/6 mice [5]; at 2 h after LPS): ~70%
time at which NF-κB and AP1 levels returned to baseline (C57BL/6 mice [5]; mouse, in vivo): ≤ 24 h
